How the values were obtained:
SK-N-SH cells = assay: Activity of protecting nerve cells against corticosterone toxicity, MTS assay (cell proliferation); format: cell-based, human; conditions: 0.25 mM corticosterone for 1 hour, versus normal group
Procedure: SK-N-SH cells as human neuroblastoma cell line were obtained from Korean Cell Line Bank, cultured in DMEM (Dulbecco's modified Eagle's medium) medium containing 10% bovine serum and 1% penicillin/streptomycin (37° C., 5% CO2 incubator), and used. Once a cell monolayer is formed, the cells were treated with TrypLE 1× solution to release the cells followed by subculture.
Furthermore, based on the toxicity of corticosterone, the activity of protecting nerve cells in human blastoma was examined. Specifically, on a Corning BioCoat collagen I 96-well plate, SK-N-SH cells were sewn at 3×10^4/well. Thereafter, the cells were pre-treated for 24 hours with an extract of Hibiscus syriacus flower or Hibiscus syriacus root at a concentration of 10, 50, 100, or 200 μg/ml followed by a treatment with 0.25 mM corticosterone for 1 hour to induce oxidative stress. Then, MTS assay was carried out and, by measuring the absorbance using ELISA (enzyme-linked immunosorbent assay) plate reader, the cell proliferation was determined.
As a positive control, a treatment with 10 μM fluoxetine (Sigma, St. Louis, Mo., USA) was carried out instead of the treatment with an extract of Hibiscus syriacus flower or Hibiscus syriacus root.

C57BL/6 mouse [1] = assay: Sucrose preference test (SPT) in immobility stress model; format: in vivo; conditions: immobility stress 22 days, 20 mg/kg oral daily, FIG. 4
Source text: As a test animal, 7-week old male C57BL/6 mouse was used after obtaining it from Samtako Bio Korea. The test animals were acclimated for 7 days in the test animal research center, which is a specific pathogen-free facility of Korea Institute of Oriental Medicine. They were divided into the followings 6 groups in total: normal group not exposed to any stress (Control, n=16), stress control group applied with the stress only (Vehicle, n=16), positive control group applied with the stress and commercially available anti-depressant (Fluoxetine, n=16), and test groups applied with the stress and extract of Hibiscus syriacus root (100, 200, or 400 mg/kg, n=16). The test methods were reviewed by Test animal ethics committee of Korea Institute of Oriental Medicine (approval number: 15-102), and as for the breeding and maintenance of the test animals, the animals were placed in an IVC (individually ventilated cage) (5 animals per cage), which has been constantly maintained at temperature of 23±1° C., humidity of 50±10% or so, and light/dark period of 12 hours, based on the regulations for management and use of animals by the Test Animal Research Center of Korea Institute of Oriental Medicine. […]
The sucrose preference test was carried out on Day 1 of the test and after completion of the test. […] The intake preference was calculated as follows.

cortisol = assay: Blood cortisol measurement after immobility stress (competitive enzyme immunoassay); format: in vivo; conditions: mouse blood serum, immobility stress 22 days, 20 mg/kg oral daily, FIG. 7
Source text: (§1) As a test animal, 7-week old male C57BL/6 mouse was used after obtaining it from Samtako Bio Korea. The test animals were acclimated for 7 days in the test animal research center, which is a specific pathogen-free facility of Korea Institute of Oriental Medicine. They were divided into the followings 6 groups in total: normal group not exposed to any stress (Control, n=16), stress control group applied with the stress only (Vehicle, n=16), positive control group applied with the stress and commercially available anti-depressant (Fluoxetine, n=16), and test groups applied with the stress and extract of Hibiscus syriacus root (100, 200, or 400 mg/kg, n=16). […]
Upon the completion of the test, the test animal was anesthetized, and blood was collected from the heart and centrifuged (1,000×g, 15 minutes) to obtain blood serum. […] Then, the absorbance at 405 nm was measured by using Micro Spectrophotometer (Molecular Device, Sunnyvale, Calif., USA).

C57BL/6 mouse [2] = assay: Forced swimming test (FST) in immobility stress model; format: in vivo; conditions: immobility stress 22 days, 20 mg/kg oral daily, FIG. 5
Source text: as §1
To measure the anti-depression effect of an extract of Hibiscus syriacus root, the forced swimming test was carried out, after the completion of the immobility stress test, by using the method of Porsolt, et. al. ([…]). […] Of total 6 minutes, the measurement was not carried out for initial 2 minutes as an acclimation period, while the immobile time of the test animal was measured for the last 4 minutes. […]

C57BL/6 mouse [3] = assay: Tail suspension test (TST) in immobility stress model; format: in vivo; conditions: immobility stress 22 days, 20 mg/kg oral daily, FIG. 6
Source text: as §1
The method by Can and others was used for the tail suspension test. […] Of total 6 minutes, the measurement was not carried out for initial 2 minutes as an acclimation period, while the immobile time of the test animal was measured for the last 4 minutes. […]

serotonin = assay: Blood serotonin measurement after immobility stress (competitive enzyme immunoassay); format: in vivo; conditions: mouse blood serum, immobility stress 22 days, 20 mg/kg oral daily, FIG. 8
Source text: as §1
Upon the completion of the test, the test animal was anesthetized, and blood was collected from the heart and centrifuged (1,000×g, 15 minutes) to obtain blood serum. […] After adding the stop solution (50 μl), the absorbance at 405 nm was measured by using Micro Spectrophotometer (Molecular Device, Sunnyvale, Calif., USA).

SMILES	cells diminished by treatment with corticosterone (SK-N-SH cells) [%]	sucrose intake amount compared to stress control group (Vehicle) (C57BL/6 mouse [1])	cortisol production in blood compared to control group (Vehicle) (cortisol)	immobile time in forced swimming test compared to control group (Vehicle) (C57BL/6 mouse [2])	immobile time in tail suspension test compared to control group (Vehicle) (C57BL/6 mouse [3])	serotonin production in blood compared to control group (Vehicle) (serotonin)
C[C@]12C[C@H](O)[C@H]3[C@@H](CCC4=CC(=O)CC[C@@]43C)[C@@H]1CC[C@@H]2C(=O)CO [corticosterone]	~50	–	–	–	–	–
CNCCC(Oc1ccc(C(F)(F)F)cc1)c1ccccc1 (stereo not drawn) [Fluoxetine, fluoxetine]	–	increased in significant sense	decreased in significant sense	decreased in significant sense	decreased	increased in significant sense

From patent US20210213081A1, “COMPOSITION FOR PREVENTING, AMELIOREATING, OR TREATING STRESS OR DEPRESSION COMPRISING MEDICINAL HERB EXTRACT AS EFFECTIVE INGREDIENT” (KOREA INSTITUTE OF ORIENTAL MEDICINE, priority 2016, published 2021)
